The NIST ThermoML archive (doi:10.1016/j.fluid.2005.07.009)
Numbers after ± are expanded uncertainties.

Columns and labels:
[1] = molar heat capacity at constant pressure; conditions: 101.33 kPa, Small sample (50 mg) DSC
[2] = Molar enthalpy of transition or fusion; conditions: Crystal; DSC

CCCCCCCCCCN [1-decanamine]
[1]
Conditions | molar heat capacity at constant pressure [J/K/mol]
260.31 K, Crystal | 259.31 ± 5.2
260.64 K, Crystal | 260.44 ± 5.2
260.93 K, Crystal | 261.21 ± 5.2
261.39 K, Crystal | 261.42 ± 5.2
261.62 K, Crystal | 262.06 ± 5.2
261.99 K, Crystal | 263.4 ± 5.3
262.32 K, Crystal | 263.89 ± 5.3
262.67 K, Crystal | 264.94 ± 5.3
262.94 K, Crystal | 265.77 ± 5.3
263.34 K, Crystal | 266.8 ± 5.3
263.61 K, Crystal | 266.97 ± 5.3
263.92 K, Crystal | 267.74 ± 5.4
264.39 K, Crystal | 269.3 ± 5.4
264.62 K, Crystal | 269.42 ± 5.4
264.91 K, Crystal | 270.38 ± 5.4
265.33 K, Crystal | 271.97 ± 5.4
265.61 K, Crystal | 272.3 ± 5.5
265.95 K, Crystal | 273.03 ± 5.5
266.38 K, Crystal | 274.58 ± 5.5
266.67 K, Crystal | 275.4 ± 5.5
266.96 K, Crystal | 275.97 ± 5.5
267.36 K, Crystal | 277.46 ± 5.5
267.62 K, Crystal | 278.39 ± 5.6
267.94 K, Crystal | 279.27 ± 5.6
268.33 K, Crystal | 280.36 ± 5.6
268.66 K, Crystal | 281.82 ± 5.6
268.95 K, Crystal | 282.79 ± 5.7
269.32 K, Crystal | 283.64 ± 5.7
269.63 K, Crystal | 284.29 ± 5.7
270.21 K, Crystal | 285.94 ± 5.7
298.11 K, Liquid | 372.55 ± 7.5
299.64 K, Liquid | 373.35 ± 7.5
300.38 K, Liquid | 373.78 ± 7.5
301.27 K, Liquid | 373.82 ± 7.5
302.37 K, Liquid | 374.25 ± 7.5
303.41 K, Liquid | 374.33 ± 7.5
304.05 K, Liquid | 374.34 ± 7.5
305.25 K, Liquid | 374.39 ± 7.5
306.31 K, Liquid | 374.86 ± 7.5
307.28 K, Liquid | 375.02 ± 7.5
308.4 K, Liquid | 375.08 ± 7.5
309.24 K, Liquid | 375.35 ± 7.5
310.32 K, Liquid | 375.6 ± 7.5
311.09 K, Liquid | 375.9 ± 7.5
312.37 K, Liquid | 376.23 ± 7.5
313.36 K, Liquid | 376.31 ± 7.5
314.28 K, Liquid | 376.34 ± 7.5
315.23 K, Liquid | 376.91 ± 7.5
316.39 K, Liquid | 377.46 ± 7.5
317.53 K, Liquid | 377.49 ± 7.5
318.23 K, Liquid | 377.55 ± 7.5
319.33 K, Liquid | 377.88 ± 7.6
320.09 K, Liquid | 377.93 ± 7.6
321.19 K, Liquid | 377.99 ± 7.6
322.08 K, Liquid | 378.21 ± 7.6
323.45 K, Liquid | 378.65 ± 7.6
324.17 K, Liquid | 379.09 ± 7.6
325 K, Liquid | 379.38 ± 7.6
326.2 K, Liquid | 379.69 ± 7.6
327.09 K, Liquid | 379.8 ± 7.6
328.21 K, Liquid | 379.88 ± 7.6
329.22 K, Liquid | 380.68 ± 7.6
330.18 K, Liquid | 380.93 ± 7.6
331.23 K, Liquid | 381.19 ± 7.6
332.31 K, Liquid | 381.58 ± 7.6
333.26 K, Liquid | 382.32 ± 7.7

Conditions | Molar enthalpy of transition or fusion [kcal/mol]
[2] | 10.2 ± 0.287

CCCCCCN [1-hexanamine]
[1]
Conditions | molar heat capacity at constant pressure [J/K/mol]
205.12 K, Crystal | 135.48 ± 2.7
206.53 K, Crystal | 137.42 ± 2.8
207.27 K, Crystal | 138.49 ± 2.8
208.18 K, Crystal | 140.02 ± 2.8
209.16 K, Crystal | 140.47 ± 2.8
210.21 K, Crystal | 141.21 ± 2.8
211.81 K, Crystal | 141.65 ± 2.8
212.3 K, Crystal | 141.8 ± 2.8
213.41 K, Crystal | 141.86 ± 2.8
214.27 K, Crystal | 141.99 ± 2.8
215.45 K, Crystal | 143.94 ± 2.9
216.17 K, Crystal | 144.89 ± 2.9
217.45 K, Crystal | 145.13 ± 2.9
218.13 K, Crystal | 145.21 ± 2.9
219.48 K, Crystal | 146.21 ± 2.9
220.34 K, Crystal | 147.15 ± 2.9
221.19 K, Crystal | 148.86 ± 3
222.04 K, Crystal | 149.71 ± 3
223.38 K, Crystal | 151.47 ± 3
224.66 K, Crystal | 152.29 ± 3
225.39 K, Crystal | 153.27 ± 3.1
226.42 K, Crystal | 155.08 ± 3.1
228.17 K, Crystal | 156.72 ± 3.1
230.11 K, Crystal | 160.13 ± 3.2
267.26 K, Liquid | 248.4 ± 5
268.63 K, Liquid | 248.52 ± 5
269.54 K, Liquid | 248.61 ± 5
270.16 K, Liquid | 248.66 ± 5
271.24 K, Liquid | 248.67 ± 5
272.69 K, Liquid | 248.95 ± 5
273.56 K, Liquid | 249.01 ± 5
274.18 K, Liquid | 249.09 ± 5
275.88 K, Liquid | 249.12 ± 5
276.66 K, Liquid | 249.26 ± 5
277.16 K, Liquid | 249.31 ± 5
278.69 K, Liquid | 249.34 ± 5
279.94 K, Liquid | 249.36 ± 5
280.47 K, Liquid | 249.45 ± 5
281.8 K, Liquid | 249.47 ± 5
282.34 K, Liquid | 249.48 ± 5
283.41 K, Liquid | 249.51 ± 5
284.45 K, Liquid | 249.55 ± 5
285.4 K, Liquid | 249.79 ± 5
286.56 K, Liquid | 249.85 ± 5
287.39 K, Liquid | 249.86 ± 5
288.43 K, Liquid | 250.09 ± 5
289.09 K, Liquid | 250.12 ± 5
290.21 K, Liquid | 250.23 ± 5
292.36 K, Liquid | 250.46 ± 5
293.15 K, Liquid | 250.5 ± 5
295.59 K, Liquid | 250.98 ± 5

Conditions | Molar enthalpy of transition or fusion [kcal/mol]
[2] | 5.98 ± 0.174
